AC35 data for 68 compounds are collected here from PubChem BioAssay AID624404 (Broad Institute, 2012).

The structures appear in SMILES notation. Records with an inconclusive call do not appear. Activity calls are given as the source filed them.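 The calls were made as follows: active = luciferase signal rise whose fitted curve crosses a set activity limit at or below the top valid tested dose; inconclusive = flat fit with 30 to 70% rise, or poor fit; inactive = signal falling, flat within 30%, or crossing above top dose.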 A value given as a limit tells only on which side of the number the result lay.

The test system of the test is D54 LucT luciferase reporter counterscreen, luminescence, 24 h. The experiment in a line: reporter signal increase, D54 LucT cells – cell-based, luminescence, cherry pick, counter-screen for N-linked glycosylation inhibitor project, dose response (AID 624404). A general note: The purpose of a counterscreen is to sort out artefacts and off-target activity.
`CCOC(=O)N1CCC(NC(=O)c2ccc3c(c2)N=C(C)c2c(C)ccc(C)c2S3)CC1`: the AC35 is 940 nM.
As for `CCC(C)[C@H](NC(=O)N1CC(=O)Nc2ccccc21)C(=O)Nc1ccccc1C` (stereo partly drawn), the figure is 2750 nM.
As for `CCn1c2ccccc2c2cc(NC(=O)COC(=O)c3ccccc3F)ccc21`, the figure is 4220 nM.
As for `COc1cc(-c2cc3nc(NCCc4ccncc4)ccn3n2)cc(OC)c1OC`, the figure is 806 nM; as for `CCC(C)C(=O)OC1CCC=C2C=CC(C)C(CCC3CC(O)CC(=O)O3)C21` (stereo not drawn), 499 nM; as for `CCCOc1ccc2ccccc2c1/C=N/n1c(C)nnc1-n1nc(C)cc1C`, 18.4 nM.
Regarding `CC1CN(c2nc(-c3ccccc3)nnc2-c2ccccc2)CC(C)O1` (stereo not drawn), the AC35 was 1390 nM.
For the compound `CCN(CC)c1ccc(/C=N/n2nnnc2N)c(O)c1`, the AC35 is 336 nM.
As for `N#Cc1ccc(-c2cccs2)nc1SCc1cccnc1`, the figure is 848 nM.
For `CCOc1ccc(N2C(=O)Nc3ccccc3C2(O)C(=O)N2CCN(c3ccccn3)CC2)cc1` (stereo not drawn), the AC35 was 1200 nM.
As for `COc1cc2c(cc1OC)C(c1cccs1)N(C(=O)c1ccncc1)CC2` (stereo not drawn), the figure is 1700 nM; as for `Cc1ccc(/C=N/NC(=O)c2sccc2OCc2ccc(F)cc2)cc1`, 1260 nM; as for `O=C(NCCc1ccccc1)c1cc(-c2ccco2)on1`, 1010 nM.
As for `COc1ccc(OC)c(Nc2nc(-c3c(C)nc4ncccn34)cs2)c1`, the figure is 1100 nM; as for `Oc1ccc(-c2csc(-c3c[nH]c4ccccc34)n2)c(O)c1`, 697 nM; as for `COc1ccc(C(=O)CSc2nnc(-c3cc4ccccc4cc3O)n2Cc2ccco2)cc1`, 1800 nM.
Turning to `O=C(/C=C/c1ccco1)Nc1nnc(-c2ccco2)s1`, the AC35 is 204 nM.
As for `CCCCn1c(SCc2c(C)noc2C)nc2cc(S(N)(=O)=O)ccc21`, the figure is 680 nM; as for `Nc1nc(CN2CCN(Cc3ccccc3)CC2)nc(Nc2ccc3c(c2)OCCO3)n1`, 251 nM; as for `COc1ccccc1NC(=O)c1cnc(SCC(=O)NCC2CCCO2)n(C)c1=O` (stereo not drawn), 4930 nM.
For the compound `O=C(O)c1ccc(N/N=C/c2ccc(-c3ccc(Cl)cc3Cl)o2)cc1`, the AC35 is 1470 nM.
For `CNC(=O)c1cccn(Cc2ccc(C(F)(F)F)cc2)c1=O`, the AC35 was 1240 nM.
On to `COCCCNC(=O)c1ccc(-c2c(C)noc2C)c2ccoc12`, for which the AC35 is 2330 nM.
Regarding `COc1ccc(C(=O)n2c(-c3ccco3)nc3ccccc32)cc1`, the AC35 was 934 nM.
As for `COc1cc(F)ccc1-c1csc(C(NC(C)=O)c2ccc(F)c(F)c2)n1` (stereo not drawn), the figure is 270 nM; as for `COC(=O)c1ccc2c(=O)n(Cc3ccc(C(=O)NC(C)C)cc3)c(=S)[nH]c2c1`, 4280 nM; as for `O=C1Nc2ccccc2/C1=C/c1cnc[nH]1`, 7.09 nM.
As for `COc1ccc(Nc2nc3cc(-c4sccc4C)sc3c(=O)n2C)cc1OC`, the figure is 104 nM.
As for `O=C(N/N=C/c1ccc2c(c1)OCO2)C1COc2ccccc2O1` (stereo not drawn), the figure is 187 nM; as for `COc1cccc(/C=N/NC(=O)c2ccc(N3CCCC3=O)cc2)c1`, 733 nM.
On to `COc1cccc(N2CCN(C(=O)c3[nH]c(C)c(C(C)=O)c3C)CC2)c1`, for which the AC35 was 4890 nM.
In the case of `COc1cccc(C2=CC(c3cccs3)n3nnnc3N2)c1` (stereo not drawn), the AC35 is 951 nM.
As for `CCOC(=O)c1c(C)c(C(=O)Nc2ccc(N(C)C)cc2)c(C)n1CC`, the figure is 3560 nM; as for `O=C(NCCCN1CCOCC1)c1cc(-c2ccccc2)on1`, 3040 nM; as for `COCCCNC(=O)c1sc2ncn(CC(=O)Nc3ccc(C)c(Cl)c3)c(=O)c2c1C`, 2510 nM.
As for `CC(=O)C1=C(O)C(=O)N(c2ccc(Br)cn2)C1c1ccc(Br)cc1` (stereo not drawn), the figure is 55.2 nM; as for `O=C(NC1CCCC(C(F)(F)F)C1)c1ccc([N+](=O)[O-])o1` (stereo not drawn), 3970 nM; as for `CC1(C(=O)NCCC(F)(F)F)Cc2c(-c3cccc(C(F)(F)F)c3)ccnc2O1` (stereo not drawn), > 19500 nM (inactive).
As for `Cc1ccc2c(c1)C(=O)N1[C@H]3c4cc(C)ccc4OC[C@@H]3[C@H](c3ccccc3)[C@]1(C)C(=O)N2`, the figure is 499 nM; as for `Cc1ccc2nsnc2c1NC(=O)c1ccc(-c2cc(Cl)ccc2Cl)o1`, 1550 nM.
As for `COc1ccc(/C=C2\CC/C(=C\c3ccc(OC)c(OC)c3)C2=O)cc1OC`, the AC35 was 155 nM.
As for `CCCNC(=O)c1cc(-c2ccco2)on1`, the figure is 903 nM; as for `COc1ccc2c(c1)[C@H]1[C@H](CO2)[C@H](c2ccccc2)[C@]2(C)C(=O)Nc3cc(OC)c(OC)cc3C(=O)N12`, 20.2 nM; as for `CNC(=O)c1cccc(NC(=O)c2ccccc2OCc2ccccc2)c1`, 454 nM.
As for `O=C(CSc1nnc(-c2cc3ccccc3cc2O)n1Cc1ccco1)N1CCc2ccccc2C1`, the figure is 1280 nM; as for `O=C(Nc1ccc2oc(-c3cccnc3)nc2c1)c1ccc([N+](=O)[O-])o1`, 1460 nM.
As for `CCOC(=O)C1CCN(c2c(N3CCN(Cc4ccccc4)CC3)c(=O)c2=O)CC1`, the figure is 1220 nM.
Take `Cc1nnc2n(c1=O)N=C(c1ccc(Cl)cc1)CS2`: the AC35 was 33.5 nM.
As for `COc1ccc2nc(C)cc(Nc3ccc(N4CCN(C)CC4)cc3)c2c1`, the figure is 4750 nM.
As for `CN(C)CCCN(C(=O)c1ccc(S(=O)(=O)N2CCc3ccccc3C2)cc1)c1nc2ccc(F)cc2s1`, the figure is 5390 nM; as for `COc1ccc(Nc2oc(-c3ccc(Cl)cc3)nc2C#N)cc1`, 202 nM.
As for `c1ccc(N=Nc2ccc3cccccc2-3)cc1`, the figure is 355 nM; as for `O=C(NCCCn1ccnc1)c1cc(-c2ccccc2)on1`, 1480 nM.
On to `COc1ccc(NC(=O)C2Cc3c(-c4cccc(NC(C)=O)c4)ccnc3O2)cc1OC` (stereo not drawn), for which the AC35 was 1830 nM.
With `Cc1ccc(CC(=O)NCc2ccc(F)cc2)cc1`, the AC35 was 4270 nM.
As for `Cn1c(=O)n(C)c2cc(NS(=O)(=O)c3ccc4c(c3)CCCC4)ccc21`, the figure is 416 nM.
As for `CCOc1ccc(N2CCc3c(C)nc(SC)nc32)cc1`, the figure is 3060 nM; as for `O=C1c2ccccc2C(=O)N1Cc1cnc(N2CCN(c3ccccc3)CC2)s1`, 2890 nM; as for `CC(=O)Nc1cccc(NC(=O)c2ccccc2OCc2ccccc2)c1`, 3830 nM.
As for `Cc1ccc(C(=O)N/C(=C\c2cccs2)C(=O)NCCc2c[nH]c3ccccc23)cc1`, the figure is 1090 nM; as for `Cc1cc(=O)oc2cc(NC(=O)c3cccc(S(C)(=O)=O)c3)ccc12`, 526 nM; as for `CC[C@]12c3[nH]c4cc(CCC(=O)N(C)C)ccc4c3CCN1C(=O)[C@@H](CC(=O)NC/C=C(\C)CCC=C(C)C)C[C@@H]2C(=O)N1CCN(C(=O)c2ccco2)CC1`, 267 nM.
For `Cc1nnc2c3ccccc3c(-c3cccs3)nn12`, the AC35 was 312 nM.
`COc1ccc(/C=C2\SC(=O)N(CCNC(=O)C3=COCCO3)C2=O)cc1`: the AC35 is 854 nM.
Turning to `O=C(NC1CCCCCC1)c1c2c(nc3ccccc13)CCN(Cc1ccccc1)C2`, the AC35 was 3450 nM.
Turning to `COc1cc(NC(C(=O)Nc2cccc(C(C)=O)c2)c2ccccc2)cc(OC)c1OC` (stereo not drawn), the AC35 is 5.56 nM.
As for `COc1cccc(C(=O)Nc2sc3c(c2C#N)CCN(C(C)=O)C3)c1`, the figure is 63.5 nM; as for `CC(C)c1c(C(=O)Nc2ccccc2)c(-c2ccccc2)c(-c2ccc(F)cc2)n1CC[C@@H](O)C[C@@H](O)CC(=O)O`, 1260 nM.
